Test results published in US12312419B2, “Hemiasterlin derivative having cysteine residue” (priority 2019, dated 2025).

Columns and labels:
porcine tubulin [1] = experiment: Evaluation of activity for inhibiting microtubule polymerization using porcine tubulins (2); format: biochemical; conditions: compound 9.1 μM; 60 minutes after assay initiation; relative to wells without compound; lower = stronger inhibition
Description: (§1) Using a tubulin polymerization inhibition assay kit (catalog number: BK006P) purchased from Cytoskeleton Inc., the polymerization inhibitory activity of compounds of Examples with a concentration of 9.1 μM was evaluated in accordance with the protocol appended to the kit. To a 96 well microplate, 80 mM PIPES pH 6.9, 2 mM MgCl, 0.5 mM EGTA and 5% DMSO buffered solution of the compound to be evaluated was added in an amount of 10 μL for each well, and to these wells, 3 mg/mL porcine tubulin 80 mM PIPES pH 6.9, 2 mM MgCl, 0.5 mM EGTA, 1 mM GTP and 10.2% glycerol solution was added in an amount of 100 μL for each well. In order to examine a state in which tubulins polymerize over time, the absorbance at 340 nm was measured at 37° C., using a microplate reader. As the polymerization of tubulins progresses, the absorbance at 340 nm rises.
The tubulin polymerization inhibitory activity was evaluated based on the proportion of polymerized tubulins 60 minutes after the assay initiation. Specifically, the microtubule polymerization rate (%) was calculated by dividing the absorbance of tubulins that had polymerized at wells to which the compound had been added by the absorbance of tubulins that had polymerized at wells to which the compound had not been added, and multiplying the obtained value by 100.

Karpas-299 cells = experiment: Cellular toxicity test (1), CellTiter-Glo cell viability; format: cell-based, human; conditions: Homo sapiens, 96 h; Karpas-299; cultured 4 days; cell viability
Description: Karpas-299 cells (European Collection of Authenticated Cell Cultures, hereinafter, ECACC), which are human lymphoma cell lines, were cultured in RPMI 1640 (GIBCO) containing 10% fetal bovine serum (MP Biomedicals) (hereinafter, referred to as the “culture medium”). Cells were prepared to be 2×10^5 cells/mL in the culture medium, and were added to a 96 well microplate for cell culturing in an amount of 50 μL for each well. Compounds of Examples or the Comparative Example compound 4 times diluted with the culture medium in 8 stages were added to the microplate in an amount of 50 μL for each well. These were cultured at 37° C. under 5% CO2 for 4 days. After culturing, the microplate was taken out from the incubator, and was left at rest at room temperature for 10 minutes. To each well, 50 μL of CellTiter-Glo Luminescent Cell Viability Assay (Promega) was added, and the resultant mixture was stirred. This mixture was incubated at a dark place for 20 minutes. Using a microplate luminometer, luminescence at each well was measured, thereby calculating the cell viability. From the value of the cell viability, the IC50 value was calculated.
The IC50 value was calculated by the following formula: IC50(nM)=antilog(LOG10(a/b)×(e−d)/(c−d)+LOG10b) • a: concentration a of test substance • b: concentration b of test substance • c: cell viability upon adding test substance with concentration a • d: cell viability upon adding test substance with concentration b • e: intermediate value between maximum and minimum among cell viabilities upon adding test substances with different concentrations (a and b are concentrations crossing the cell viability e, and a>b is indicated).
The cell viability at each concentration was calculated by the following formula: Cell Viability (%)=a′/b′×100 • a′: mean value of luminescence amount of wells to which test substance was added (n=6) • b′: mean value of luminescence amount of wells to which test substance was not added (n=6) • (n represents the number of evaluations performed per test substance concentration).

porcine tubulin [2] = experiment: Evaluation of activity for inhibiting microtubule polymerization using porcine tubulins (1); format: biochemical; conditions: compound 9.1 μM; absorbance at 340 nm at 37° C. over time; FIG. 1
Description: as §1, with “In summary of the protocol, to” for “To”, “mg/ml” for “mg/mL”

| Compound | Microtubule polymerization rate (%) (porcine tubulin [1]) | IC50 (Karpas-299 cells) [µM] | activity for inhibiting microtubule polymerization (porcine tubulin [2]) |
| --- | --- | --- | --- |
| CN[C@H](C(=O)N[C@H](C(=O)N(C)[C@H](/C=C(\C)C(=O)N[C@H](CCC(=O)O)C(=O)NCCN1C(=O)CC(SC[C@H](N)C(=O)O)C1=O)C(C)C)C(C)(C)C)C(C)(C)c1ccccc1 (some centres unmarked) [Example MM15] | 0 | > 1 | – |
| CN[C@H](C(=O)N[C@H](C(=O)N(C)[C@H](/C=C(\C)C(=O)N[C@@H](CCC(=O)NCCN1C(=O)CC(SC[C@H](N)C(=O)O)C1=O)C(=O)O)C(C)C)C(C)(C)C)C(C)(C)c1ccccc1 (some centres unmarked) [Example MM11] | 0 | > 1 | – |
| CN[C@H](C(=O)N[C@H](C(=O)N(C)[C@H](/C=C(\C)C(=O)N[C@H](CCC(=O)NCCCN1C(=O)CC(SC[C@H](N)C(=O)O)C1=O)C(=O)O)C(C)C)C(C)(C)C)C(C)(C)c1cn(C)c2ccccc12 (some centres unmarked) [Example MM23] | 0 | 0.942 | – |
| CN[C@H](C(=O)N[C@H](C(=O)N(C)[C@H](/C=C(\C)C(=O)N[C@H](CCC(=O)NCCCCN1C(=O)CC(SC[C@H](N)C(=O)O)C1=O)C(=O)O)C(C)C)C(C)(C)C)C(C)(C)c1ccccc1 (some centres unmarked) [Example MM17] | 0 | 0.85 | – |
| C/C(=C\[C@H](C(C)C)N(C)C(=O)[C@@H](NC(=O)[C@@H](N(C)C)C(C)(C)c1ccccc1)C(C)(C)C)C(=O)N[C@H](CCC(=O)NCCN1C(=O)CC(SC[C@H](N)C(=O)O)C1=O)C(=O)O (some centres unmarked) [Example MM46] | 0 | > 1 | – |
| CN[C@H](C(=O)N[C@H](C(=O)N(C)[C@H](/C=C(\C)C(=O)N[C@H](CCC(=O)NCCN1C(=O)CC(SC[C@H](N)C(=O)O)C1=O)C(=O)O)C(C)C)C(C)(C)C)C(C)(C)c1cccc(C(F)(F)F)c1 (some centres unmarked) [Example MM30] | 12 | > 1 | – |
| CN[C@H](C(=O)N[C@H](C(=O)N(C)[C@H](/C=C(\C)C(=O)NCCCCNC(=O)CCCCCN1C(=O)CC(SC[C@H](N)C(=O)O)C1=O)C(C)C)C(C)(C)C)C(C)(C)c1cn(C)c2ccccc12 (some centres unmarked) [Comparative Example compound 2, reference compound] | 0 | 0.03 | – |
| CN[C@H](C(=O)N[C@H](C(=O)N(C)[C@H](/C=C(\C)C(=O)N[C@@H](CCC(=O)NCCN1C(=O)CC(SC[C@H](N)C(=O)O)C1=O)C(=O)O)C(C)C)C(C)(C)C)C(C)(C)c1cn(C)c2ccccc12 (some centres unmarked) [Example MM18] | 0 | 0.541 | – |
| CN[C@H](C(=O)N[C@H](C(=O)N(C)[C@H](/C=C(\C)C(=O)NCCCC[C@@H](NC(=O)CCCN1C(=O)CC(SC[C@H](N)C(=O)O)C1=O)C(=O)O)C(C)C)C(C)(C)C)C(C)(C)c1ccccc1 (some centres unmarked) [Example MM28] | 0 | > 1 | – |
| CN[C@H](C(=O)N[C@H](C(=O)N(C)[C@H](/C=C(\C)C(=O)N[C@H](CCC(=O)NCCN1C(=O)CC(SC[C@H](N)C(=O)O)C1=O)C(=O)O)C(C)C)C(C)(C)C)C(C)(C)c1ccccc1 (stereo partly drawn) [Example MM1, (3S,6S,9S,10E,14R)-14-(3-{[2-(3-{[(2R)-2-Amino-2-carboxyethyl]sulfanyl}-2,5-dioxopyrrolidin-1-yl)ethyl]amino}-3-oxopropyl)-6-tert-butyl-8,11-dimethyl-4,7,12-trioxo-3-(2-phenylpropan-2-yl)-9-(propan-2-yl)-2,5,8,13-tetraazapentadec-10-en-15-oic Acid] | 9 | > 1 | exhibited activities for inhibiting microtubule polymerization |
| CN[C@H](C(=O)N[C@H](C(=O)N(C)[C@H](/C=C(\C)C(=O)N[C@H](CCC(=O)N[C@@H](CCCCNC(=O)CCN1C(=O)CC(SC[C@H](N)C(=O)O)C1=O)C(=O)O)C(=O)O)C(C)C)C(C)(C)C)C(C)(C)c1cn(C)c2ccc(F)cc12 (some centres unmarked) [Example MM26] | – | 0.384 | – |
| CN[C@H](C(=O)N[C@H](C(=O)N(C)[C@H](/C=C(\C)C(=O)N[C@H](CCC(=O)NCCN1C(=O)CC(SC[C@H](N)C(=O)O)C1=O)C(=O)O)C(C)C)C(C)(C)C)C(C)(C)c1ccc(C(=O)O)cc1 (some centres unmarked) [Example MM35] | – | > 1 | – |
| CN[C@H](C(=O)N[C@H](C(=O)N(C)[C@H](/C=C(\C)C(=O)N[C@@H](CC(=O)O)C(=O)NCCN1C(=O)CC(SC[C@H](N)C(=O)O)C1=O)C(C)C)C(C)(C)C)C(C)(C)c1cn(C)c2ccccc12 (some centres unmarked) [Example MM21] | – | 0.471 | – |
| C/C(=C\[C@H](C(C)C)N(C)C(=O)[C@@H](NC(=O)[C@@H](N)C(C)(C)c1ccccc1)C(C)(C)C)C(=O)N[C@H](CCC(=O)NCCN1C(=O)CC(SC[C@H](N)C(=O)O)C1=O)C(=O)O (some centres unmarked) [Example MM45] | 56 | > 1 | – |
| CN[C@H](C(=O)N[C@H](C(=O)N(C)[C@H](/C=C(\C)C(=O)N[C@H](CCC(=O)NCCN1C(=O)CC(SC[C@H](N)C(=O)O)C1=O)C(=O)O)C(C)C)C(C)(C)C)C(C)(C)c1cccc(C)c1 (some centres unmarked) [Example MM40] | – | 0.146 | – |
| CN[C@H](C(=O)N[C@H](C(=O)N(C)[C@H](/C=C(\C)C(=O)N[C@H](CCC(=O)NCCN1C(=O)CC(SC[C@H](N)C(=O)O)C1=O)C(=O)O)C(C)C)C(C)(C)C)C(C)(C)C1CCCCC1 (some centres unmarked) [Example MM32] | 0 | > 1 | – |
